Where two headings read alike, the source gives them in different places.
Experiments:
[1] = target: T1, HCV NS3/4A protease complex, BMS strain (UniProt P27958, species not given/STRAIN_BMS); experiment: FRET peptide assay to monitor HCV NS3/4A proteolytic activity (BMS strain); type: biochemical, Hepatitis C virus (genotype 1a); settings: read-out: HCV Protease (IC50); NS3/4A BMS strain; activity range class
T1 construct: other: NS3/4A BMS strain; activity range class; numeric values, unit not given; said of H77 and J4L6S; fused on or other part: A three-lysine solubilising tail at the C-terminus of NS4A; A His tag is implied by the pET21b vector and Ni-NTA purification; Both are printed for the H77 and J4L6S constructs and apply to BMS by inference
Procedure, shortened: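 Purified recombinant NS3/4A complex from genotype 1a BMS strain, 2-3 nM final, with RET S1 EDANS/DABCYL depsipeptide substrate at 2 μM final in HEPES pH 7.5, NaCl, Triton, glycerol, βME. Cleavage followed in real time by fluorescence. For high-potency compounds: 50 μg/ml BSA added, protease lowered to 300 pM.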

[2] = tested on: HCV replicon (strain 1b) in HUH-7 cells; experiment: HCV replicon FRET assay; type: cell-based, Hepatitis C virus; settings: activity range class
[3] = Hepatitis C virus, Huh-7, read-out: HCV Pro Replicon (EC50), HCV replicon cell assay
[4] = read-out: HCV Pro Replicon (EC50), HCV replicon cell assay

T1 sequence (P27958 1027-1657, change not shown, one chain of several): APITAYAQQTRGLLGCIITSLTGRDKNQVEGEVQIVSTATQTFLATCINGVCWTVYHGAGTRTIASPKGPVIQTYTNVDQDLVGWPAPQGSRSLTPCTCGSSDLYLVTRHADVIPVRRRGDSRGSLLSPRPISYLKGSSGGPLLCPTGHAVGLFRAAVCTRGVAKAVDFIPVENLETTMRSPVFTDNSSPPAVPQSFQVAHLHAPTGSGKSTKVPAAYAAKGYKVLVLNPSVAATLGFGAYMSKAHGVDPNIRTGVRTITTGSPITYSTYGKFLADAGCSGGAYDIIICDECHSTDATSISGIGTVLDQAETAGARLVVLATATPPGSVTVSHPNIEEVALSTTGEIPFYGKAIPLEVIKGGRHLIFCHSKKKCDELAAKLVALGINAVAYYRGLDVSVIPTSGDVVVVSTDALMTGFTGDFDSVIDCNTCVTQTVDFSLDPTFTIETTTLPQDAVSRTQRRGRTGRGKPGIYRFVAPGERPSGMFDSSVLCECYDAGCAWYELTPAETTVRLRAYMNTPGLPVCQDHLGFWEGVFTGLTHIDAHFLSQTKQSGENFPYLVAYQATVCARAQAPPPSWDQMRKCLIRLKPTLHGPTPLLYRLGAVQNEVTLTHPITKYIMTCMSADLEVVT

Row | Compound | IC50 [1] [nM] | EC50 [2, 3] [nM] | EC50 [2, 4] [nM]
1 | C=C[C@@H]1C[C@]1(NC(=O)[C@@H]1C[C@@H](Oc2nccc3cc(OC)ccc23)CN1C(=O)[C@H](Nc1nc(C)cc(C)n1)C(C)C)C(=O)NS(=O)(=O)C1CC1 [6 first isomer, N-(4,6-dimethyl-2-pyrimidinyl)-D-valyl-(4R)—N-((1R,2S)-1-((cyclopropylsulfonyl)carbamoyl)-2-vinylcyclopropyl)-4-((6-methoxy-1-isoquinolinyl)oxy)-L-prolinamide] | 20 to 200 | > 1000 | –
2 | C=C[C@@H]1C[C@]1(NC(=O)[C@@H]1C[C@@H](Oc2nccc3cc(OC)ccc23)CN1C(=O)[C@@H](Nc1nc(C)cc(C)n1)C(C)C)C(=O)NS(=O)(=O)C1CC1 [6 second isomer, N-(4,6-dimethyl-2-pyrimidinyl)-L-valyl-(4R)—N-((1R,2S)-1-((cyclopropylsulfonyl)carbamoyl)-2-vinylcyclopropyl)-4-((6-methoxy-1-isoquinolinyl)oxy)-L-prolinamide] | 0.6 to 20 | 100 to 1000 | –
3 | C=C[C@@H]1C[C@]1(NC(=O)[C@@H]1C[C@@H](Oc2nccc3cc(OC)ccc23)CN1C(=O)[C@@H](Nc1ccccn1)C(C)(C)C)C(=O)NS(=O)(=O)C1CC1 [12 first isomer, 3-methyl-N-2-pyridinyl-L-valyl-(4R)—N-((1R,2S)-1-((cyclopropylsulfonyl)carbamoyl)-2-vinylcyclopropyl)-4-((6-methoxy-1-isoquinolinyl)oxy)-L-prolinamide] | 0.6 to 20 | 3 to 100 | –
4 | C=C[C@@H]1C[C@]1(NC(=O)[C@@H]1C[C@@H](Oc2nccc3cc(OC)ccc23)CN1C(=O)[C@H](Nc1ccccn1)C(C)(C)C)C(=O)NS(=O)(=O)C1CC1 [12 second isomer, 3-methyl-N-2-pyridinyl-D-valyl-(4R)—N-((1R,2S)-1-((cyclopropylsulfonyl)carbamoyl)-2-vinylcyclopropyl)-4-((6-methoxy-1-isoquinolinyl)oxy)-L-prolinamide] | 20 to 200 | 100 to 1000 | –
5 | C=C[C@@H]1C[C@]1(NC(=O)[C@@H]1C[C@@H](Oc2nccc3cc(OC)ccc23)CN1C(=O)[C@@H](Nc1cccnc1)C(C)(C)C)C(=O)NS(=O)(=O)C1CC1 [13 first isomer, 3-methyl-N-3-pyridinyl-L-valyl-(4R)—N-((1R,2S)-1-((cyclopropylsulfonyl)carbamoyl)-2-vinylcyclopropyl)-4-((6-methoxy-1-isoquinolinyl)oxy)-L-prolinamide] | 20 to 200 | 3 to 100 | –
6 | C=C[C@@H]1C[C@]1(NC(=O)[C@@H]1C[C@@H](Oc2nccc3cc(OC)ccc23)CN1C(=O)[C@@H](Nc1cc(C)cc(C)n1)C(C)(C)C)C(=O)NS(=O)(=O)C1CC1 [14 first isomer, N-(4,6-dimethyl-2-pyridinyl)-3-methyl-L-valyl-(4R)—N-((1R,2S)-1-((cyclopropylsulfonyl)carbamoyl)-2-vinylcyclopropyl)-4-((6-methoxy-1-isoquinolinyl)oxy)-L-prolinamide] | 0.6 to 20 | 3 to 100 | –
7 | C=C[C@@H]1C[C@]1(NC(=O)[C@@H]1C[C@@H](Oc2nccc3cc(OC)ccc23)CN1C(=O)[C@H](Nc1cc(C)cc(C)n1)C(C)(C)C)C(=O)NS(=O)(=O)C1CC1 [14 second isomer, N-(4,6-dimethyl-2-pyridinyl)-3-methyl-D-valyl-(4R)—N-((1R,2S)-1-((cyclopropylsulfonyl)carbamoyl)-2-vinylcyclopropyl)-4-((6-methoxy-1-isoquinolinyl)oxy)-L-prolinamide] | > 200 | 100 to 1000 | –
8 | C=C[C@@H]1C[C@]1(NC(=O)[C@@H]1C[C@@H](Oc2nccc3cc(OC)ccc23)CN1C(=O)[C@@H](Nc1ccccc1)C(C)(C)C)C(=O)NS(=O)(=O)C1CC1 [15 first isomer, 3-methyl-N-phenyl-L-valyl-(4R)—N-((1R,2S)-1-((cyclopropylsulfonyl)carbamoyl)-2-vinylcyclopropyl)-4-((6-methoxy-1-isoquinolinyl)oxy)-L-prolinamide] | 0.6 to 20 | 3 to 100 | –
9 | C=C[C@@H]1C[C@]1(NC(=O)[C@@H]1C[C@@H](Oc2ncc(OC)c3ccc(Cl)cc23)CN1C(=O)[C@@H](Nc1ccc(C(=O)OC(C)(C)C)cc1)C(C)(C)C)C(=O)NS(=O)(=O)C1CC1 [204 first isomer, tert-butyl 4-((S)-1-((2S,4R)-4-(7-chloro-4-methoxyisoquinolin-1-yloxy)-2-((1R,2S)-1-(cyclopropylsulfonylcarbamoyl)-2-vinylcyclopropylcarbamoyl)pyrrolidin-1-yl)-3,3-dimethyl-1-oxobutan-2-ylamino)benzoate] | 0.6 to 20 | – | 3 to 100
10 | C=C[C@@H]1C[C@]1(NC(=O)[C@@H]1C[C@@H](Oc2ncc(OC)c3ccc(Cl)cc23)CN1C(=O)C(Nc1ccc(C(=O)OC(C)(C)C)cc1)C(C)(C)C)C(=O)NS(=O)(=O)C1CC1 (stereo partly drawn) [204 second isomer] | > 200 | – | > 1000
11 | C=C[C@@H]1C[C@]1(NC(=O)[C@@H]1C[C@@H](Oc2ncc(OC)c3ccc(Cl)cc23)CN1C(=O)[C@@H](Nc1ccc(C#N)cc1)C(C)(C)C)C(=O)NS(=O)(=O)C1CC1 [205 first isomer, N-(4-cyanophenyl)-3-methyl-L-valyl-(4R)-4-((7-chloro-4-methoxy-1-isoquinolinyl)oxy)-N-((1R,2S)-1-((cyclopropylsulfonyl)carbamoyl)-2-vinylcyclopropyl)-L-prolinamide] | 0.6 to 20 | 3 to 100 | –
12 | C=C[C@@H]1C[C@]1(NC(=O)[C@@H]1C[C@@H](Oc2ncc(OC)c3ccc(Cl)cc23)CN1C(=O)[C@H](Nc1ccc(C#N)cc1)C(C)(C)C)C(=O)NS(=O)(=O)C1CC1 [205 second isomer, N-(4-cyanophenyl)-3-methyl-D-valyl-(4R)-4-((7-chloro-4-methoxy-1-isoquinolinyl)oxy)-N-((1R,2S)-1-((cyclopropylsulfonyl)carbamoyl)-2-vinylcyclopropyl)-L-prolinamide] | > 200 | 3 to 100 | –
13 | C=C[C@@H]1C[C@]1(NC(=O)[C@@H]1C[C@@H](Oc2ncc(OC)c3ccc(Cl)cc23)CN1C(=O)[C@@H](Nc1cccc(S(=O)(=O)NC(C)(C)C)c1)C(C)(C)C)C(=O)NS(=O)(=O)C1CC1 [206 first isomer, N-(3-(tert-butylsulfamoyl)phenyl)-3-methyl-L-valyl-(4R)-4-((7-chloro-4-methoxy-1-isoquinolinyl)oxy)-N-((1R,2S)-1-((cyclopropylsulfonyl)carbamoyl)-2-vinylcyclopropyl)-L-prolinamide] | 0.6 to 20 | 3 to 100 | –
14 | C=C[C@@H]1C[C@]1(NC(=O)[C@@H]1C[C@@H](Oc2ncc(OC)c3ccc(Cl)cc23)CN1C(=O)[C@H](Nc1cccc(S(=O)(=O)NC(C)(C)C)c1)C(C)(C)C)C(=O)NS(=O)(=O)C1CC1 [206 second isomer, N-(3-(tert-butylsulfamoyl)phenyl)-3-methyl-D-valyl-(4R)-4-((7-chloro-4-methoxy-1-isoquinolinyl)oxy)-N-((1R,2S)-1-((cyclopropylsulfonyl)carbamoyl)-2-vinylcyclopropyl)-L-prolinamide] | > 200 | > 1000 | –
15 | C=C[C@@H]1C[C@]1(NC(=O)[C@@H]1C[C@@H](Oc2ncc(OC)c3ccc(Cl)cc23)CN1C(=O)[C@@H](Nc1cccc(S(N)(=O)=O)c1)C(C)(C)C)C(=O)NS(=O)(=O)C1CC1 [207 first isomer, 3-methyl-N-(3-sulfamoylphenyl)-L-valyl-(4R)-4-((7-chloro-4-methoxy-1-isoquinolinyl)oxy)-N-((1R,2S)-1-((cyclopropylsulfonyl)carbamoyl)-2-vinylcyclopropyl)-L-prolinamide] | 0.6 to 20 | 3 to 100 | –
16 | C=C[C@@H]1C[C@]1(NC(=O)[C@@H]1C[C@@H](Oc2ncc(OC)c3ccc(Cl)cc23)CN1C(=O)[C@H](Nc1cccc(S(N)(=O)=O)c1)C(C)(C)C)C(=O)NS(=O)(=O)C1CC1 [207 second isomer, 3-methyl-N-(3-sulfamoylphenyl)-D-valyl-(4R)-4-((7-chloro-4-methoxy-1-isoquinolinyl)oxy)-N-((1R,2S)-1-((cyclopropylsulfonyl)carbamoyl)-2-vinylcyclopropyl)-L-prolinamide] | > 200 | > 1000 | –
17 | C=C[C@@H]1C[C@]1(NC(=O)[C@@H]1C[C@@H](Oc2ncc(OC)c3ccc(Cl)cc23)CN1C(=O)[C@@H](Nc1cccc(F)c1F)C(C)(C)C)C(=O)NS(=O)(=O)C1CC1 [208 first isomer, N-(2,3-difluorophenyl)-3-methyl-L-valyl-(4R)-4-((7-chloro-4-methoxy-1-isoquinolinyl)oxy)-N-((1R,2S)-1-((cyclopropylsulfonyl)carbamoyl)-2-vinylcyclopropyl)-L-prolinamide] | 0.6 to 20 | 3 to 100 | –
18 | C=C[C@@H]1C[C@]1(NC(=O)[C@@H]1C[C@@H](Oc2ncc(OC)c3ccc(Cl)cc23)CN1C(=O)[C@@H](Nc1ccc(C(=O)O)cc1)C(C)(C)C)C(=O)NS(=O)(=O)C1CC1 [209 first isomer, N-(4-carboxyphenyl)-3-methyl-L-valyl-(4R)-4-((7-chloro-4-methoxy-1-isoquinolinyl)oxy)-N-((1R,2S)-1-((cyclopropylsulfonyl)carbamoyl)-2-vinylcyclopropyl)-L-prolinamide] | 0.6 to 20 | 3 to 100 | –
19 | C=C[C@@H]1C[C@]1(NC(=O)[C@@H]1C[C@@H](Oc2ncc(OC)c3ccc(Cl)cc23)CN1C(=O)[C@H](Nc1ccc(C(=O)O)cc1)C(C)(C)C)C(=O)NS(=O)(=O)C1CC1 [209 second isomer, N-(4-carboxyphenyl)-3-methyl-D-valyl-(4R)-4-((7-chloro-4-methoxy-1-isoquinolinyl)oxy)-N-((1R,2S)-1-((cyclopropylsulfonyl)carbamoyl)-2-vinylcyclopropyl)-L-prolinamide] | > 200 | > 1000 | –
